From patent US20200038411A1, “METHODS OF TREATING TE[…]” (priority 2017, published 2020)
Entries after “also recorded” stand apart in the source; their conditions may differ.

Tests used:
[1] = men; upper range for testosterone administered as TU (lymphatic absorption); cited from earlier work
[2] = Blood collected into different tubes spiked with TU, measured T (LA Biomed experiments); format: in vitro ADME, human
Excerpt: Additionally, non-specific esterases in blood may lead to hydrolysis of testosterone undecanoate (TU) (and its metabolite DHTU) during the blood collection procedure used to collect serum or plasma for evaluating T, dihydrotestosterone (DHT), TU and dihydrotestosterone undecanoate (DHTU) concentrations. If the extent of hydrolysis ex vivo is significant (e.g., at high concentrations of circulating TU or DHTU), then serum or plasma values of T, DHT, TU and DHTU may not accurately reflect the true in vivo concentrations of these compounds (e.g., T and DHT values may be artificially high due to ex vivo conversion of TU to T or DHTU to DHT). It has previously been shown that the collection of blood in sodium fluoride (NaF) containing tubes (so called ‘gray tops’ in a clinical setting) interfered with the measurement of serum T with a 20% decrease in the measured serum T levels (Wang, et al, 2008). […] In addition, the measured T concentrations in fluoride-containing tubes decreased by about 12 to 25%. Lachance et al published an article in 2015 that concluded T must be analyzed in enzyme-inhibited (i.e., NaF containing) plasma or serum when TU is administered to subjects in an oral form.

[3] = In vitro conversion of TU to T in whole blood at ambient temperature; format: in vitro ADME; details: human blood, conditions typical of harvesting serum, no enzyme inhibitors
Experimental: Testosterone undecanoate is metabolized into testosterone. Its degradation in whole blood into testosterone has been studied in conditions typically used in clinical trials.
The in vitro conversion of TU to T in whole blood samples at ambient temperature was investigated by harvesting approximately 50 mL of blood from subjects prior to their oral TU administration. Aliquots of the pretreatment whole blood were added to 5 Plain sample collection tubes each tube previously spiked with 1 of 5 selected concentrations of TU (0, 30, 100, 300 and 1000 ng/mL). After gentle mixing, the tubes were stored at room temperature (about 23° C.) for 30 minutes prior to separating serum. […]
The frozen samples were stored at −20° C. until assay. All samples from a single participant were analyzed in the same assay run. Serum and plasma from the different tubes were measured using the methods developed for serum. Both T and DHT were measured in the same assay and both TU and […] were analyzed in the same assay developed for serum measurements. […]
When serum is harvested in the absence of enzyme inhibitors, the hydrolysis of TU and DHTU to T and DHT occurs during whole blood collection and processing to serum. […] Thus, testosterone must be analyzed in enzyme-inhibited plasma when TU is the administered medication.

[4] = Single 316 mg oral TU dose, T concentration-time profiles by sample collection tube type; format: in vivo, human; details: 3 hours post dose
Experimental: Each study participant received a single oral TU dose containing 316 mg TU immediately prior to a standardized breakfast meal comprised of 800 to 1000 calories containing approximately 30 g of fat or about 25 to 30 percent fat. Subjects were instructed to consume the entire breakfast meal in no more than 30 minutes. Blood samples were collected 30 minutes prior to oral TU administration and at 0 (pre-dose), and 1, 2, 3, 4, 5, 6, 7, 8, 9, 10, 11 and 12 hrs post-dose. Because of the timed sample collections, all except for one subject entered the clinical research unit around 7 AM and spend the study period of 12 to 14 hours in the unit. […]
Blood samples collected in tubes were kept at room temperature for 30 minutes then centrifuged at 4° C. for 20 minutes at >1000 g. For each blood collection tube, serum was separated promptly after centrifugation and equal quantities of serum were transferred into 2 appropriately labelled polypropylene tubes. […]
Blood samples collected in tubes were immediately kept on ice for 30 minutes then centrifuged at 4° C. for 20 minutes at >1000 g. For each blood collection tube, serum was separated promptly after centrifugation and equal quantities of serum were transferred into 2 appropriately labelled polypropylene tubes. […]
The frozen samples were stored at −20° C. until assay. All samples from a single participant were analyzed in the same assay run. […]

Structure (SMILES): C[C@]12CC[C@H]3[C@@H](CCC4=CC(=O)CC[C@@]43C)[C@@H]1CC[C@@H]2O [T, Testosterone]
- plasma half-life of testosterone [1]: 10 to 100 min

Structure (SMILES): CCCCCCCCCCC(=O)O[C@H]1CC[C@H]2[C@@H]3CCC4=CC(=O)CC[C@]4(C)[C@H]3CC[C@]12C [TU, testosterone undecanoate]
- increases in the measured T levels after spiking with TU ([2]; NaF+oxalate and NaF+EDTA tubes kept at 4° C. for 30 minutes, 0, 300 or 600 ng/ml TU): minimal increases
- increase in measured T concentrations (ex vivo conversion of TU to T) ([2]; addition of TU in excess of 500 ng/ml, standard 'red top' plain tubes without additives): 20 to 25%
- degradation (conversion) of TU to testosterone in whole blood [3]: degrades extensively; also recorded: extensive and continues over time
- difference in mean T concentration between the Plain tube type and the other tube types [4]: approximately 150 ng/dL
- mean assayed T concentration of NaF tube types, less than the Plain tube type [4]: approximately 14%
